ChEMBL document CHEMBL5653615 (J Biol Chem, 2013)

Assays:
[1] = molecular target: Serine/threonine-protein kinase MARK1 (Homo sapiens) (UniProt Q9P0L2); assay: Inhibition of human MARK1 at 18.6 nM by HotSpot assay relative to control
[2] = molecular target: T1, Rhodopsin kinase GRK7 (Homo sapiens) (UniProt Q8WTQ7); assay: Inhibition of human GRK7 at 18.6 nM by HotSpot assay relative to control
T1 sequence (whole entry): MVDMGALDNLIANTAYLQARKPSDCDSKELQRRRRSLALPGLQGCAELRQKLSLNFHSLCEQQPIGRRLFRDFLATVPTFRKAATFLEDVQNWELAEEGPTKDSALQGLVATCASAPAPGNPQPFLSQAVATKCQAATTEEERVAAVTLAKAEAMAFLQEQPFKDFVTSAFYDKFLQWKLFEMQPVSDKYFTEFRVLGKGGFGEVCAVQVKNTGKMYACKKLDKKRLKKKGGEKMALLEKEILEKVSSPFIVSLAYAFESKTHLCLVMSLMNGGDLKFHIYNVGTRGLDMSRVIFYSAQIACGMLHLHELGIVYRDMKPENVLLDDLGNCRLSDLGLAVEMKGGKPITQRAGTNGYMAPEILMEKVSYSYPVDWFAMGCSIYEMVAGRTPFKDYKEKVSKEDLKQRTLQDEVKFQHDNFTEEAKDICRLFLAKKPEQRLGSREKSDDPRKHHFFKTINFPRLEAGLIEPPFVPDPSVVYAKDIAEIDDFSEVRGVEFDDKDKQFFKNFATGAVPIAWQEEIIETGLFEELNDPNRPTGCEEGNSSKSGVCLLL

[3] = molecular target: T2, Serine/threonine-protein kinase DCLK2 (Homo sapiens) (UniProt Q8N568); assay: Inhibition of human DCAMKL2 at 18.6 nM by HotSpot assay relative to control
T2 sequence (whole entry): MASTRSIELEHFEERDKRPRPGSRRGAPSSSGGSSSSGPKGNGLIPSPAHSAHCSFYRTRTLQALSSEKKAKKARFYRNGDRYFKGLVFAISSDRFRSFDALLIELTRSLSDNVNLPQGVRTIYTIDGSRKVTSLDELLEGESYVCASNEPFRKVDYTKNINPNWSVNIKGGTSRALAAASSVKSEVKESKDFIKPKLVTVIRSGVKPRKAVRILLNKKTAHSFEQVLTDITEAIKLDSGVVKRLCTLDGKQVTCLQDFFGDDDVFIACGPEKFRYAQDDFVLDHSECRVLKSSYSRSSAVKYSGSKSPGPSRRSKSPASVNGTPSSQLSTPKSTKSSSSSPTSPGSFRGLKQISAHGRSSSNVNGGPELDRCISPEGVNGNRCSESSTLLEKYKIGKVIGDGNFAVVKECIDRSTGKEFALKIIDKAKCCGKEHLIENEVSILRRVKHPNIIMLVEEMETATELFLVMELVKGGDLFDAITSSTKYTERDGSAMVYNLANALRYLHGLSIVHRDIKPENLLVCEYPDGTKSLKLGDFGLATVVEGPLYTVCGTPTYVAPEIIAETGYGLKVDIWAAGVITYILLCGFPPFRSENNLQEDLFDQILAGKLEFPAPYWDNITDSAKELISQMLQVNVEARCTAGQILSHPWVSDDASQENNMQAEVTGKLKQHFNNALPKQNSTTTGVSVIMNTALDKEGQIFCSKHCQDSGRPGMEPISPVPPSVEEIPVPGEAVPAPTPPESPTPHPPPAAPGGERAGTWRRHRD

[4] = molecular target: T3, Homeodomain-interacting protein kinase 4 (Homo sapiens) (UniProt Q8NE63); assay: Inhibition of human HIPK4 at 1.82 nM by HotSpot assay relative to control
T3 sequence (whole entry): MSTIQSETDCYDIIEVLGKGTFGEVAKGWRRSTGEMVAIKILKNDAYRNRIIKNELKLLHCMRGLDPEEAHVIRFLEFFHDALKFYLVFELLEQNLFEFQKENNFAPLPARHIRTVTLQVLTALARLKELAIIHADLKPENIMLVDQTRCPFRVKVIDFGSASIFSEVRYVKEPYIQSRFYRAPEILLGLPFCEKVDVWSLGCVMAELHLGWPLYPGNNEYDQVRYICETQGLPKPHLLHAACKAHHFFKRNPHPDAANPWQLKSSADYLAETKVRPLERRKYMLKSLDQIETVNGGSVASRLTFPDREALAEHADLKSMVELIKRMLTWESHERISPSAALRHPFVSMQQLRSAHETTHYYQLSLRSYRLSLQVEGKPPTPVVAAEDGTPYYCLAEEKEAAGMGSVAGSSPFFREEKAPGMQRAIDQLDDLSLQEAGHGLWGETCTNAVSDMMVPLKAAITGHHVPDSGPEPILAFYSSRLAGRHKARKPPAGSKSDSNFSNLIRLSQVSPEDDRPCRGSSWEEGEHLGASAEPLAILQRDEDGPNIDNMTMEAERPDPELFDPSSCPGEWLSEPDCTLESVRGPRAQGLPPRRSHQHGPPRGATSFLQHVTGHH

[5] = molecular target: T4, MAP/microtubule affinity-regulating kinase 4 (Homo sapiens) (UniProt Q96L34); assay: Inhibition of human MARK4 at 1.82 nM by HotSpot assay relative to control
T4 sequence (whole entry): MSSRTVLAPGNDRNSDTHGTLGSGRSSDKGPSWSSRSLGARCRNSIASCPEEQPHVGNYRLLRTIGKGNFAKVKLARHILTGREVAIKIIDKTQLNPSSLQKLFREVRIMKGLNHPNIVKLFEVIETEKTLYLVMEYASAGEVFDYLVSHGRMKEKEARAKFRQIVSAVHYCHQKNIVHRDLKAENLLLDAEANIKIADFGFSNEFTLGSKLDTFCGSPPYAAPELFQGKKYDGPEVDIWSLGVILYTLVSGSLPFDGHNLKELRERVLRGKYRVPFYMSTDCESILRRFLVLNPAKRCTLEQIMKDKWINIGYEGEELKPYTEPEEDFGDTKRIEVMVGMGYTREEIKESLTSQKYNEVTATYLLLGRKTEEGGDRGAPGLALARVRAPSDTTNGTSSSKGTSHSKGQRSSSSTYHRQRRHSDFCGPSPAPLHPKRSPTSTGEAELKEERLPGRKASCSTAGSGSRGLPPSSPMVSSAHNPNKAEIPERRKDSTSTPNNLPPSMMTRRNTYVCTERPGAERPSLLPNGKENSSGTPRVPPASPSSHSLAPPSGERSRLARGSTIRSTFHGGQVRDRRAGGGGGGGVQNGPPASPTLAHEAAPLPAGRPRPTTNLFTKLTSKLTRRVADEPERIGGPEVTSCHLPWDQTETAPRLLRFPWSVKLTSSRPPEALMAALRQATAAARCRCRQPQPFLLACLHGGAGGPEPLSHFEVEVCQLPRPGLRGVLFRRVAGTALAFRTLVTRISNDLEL

[6] = molecular target: Protein kinase C alpha type (Homo sapiens) (UniProt P17252); assay: Inhibition of human PKCa at 1.82 nM by HotSpot assay relative to control
[7] = molecular target: Protein kinase C beta type (Homo sapiens) (UniProt P05771); assay: Inhibition of human PKCb1 at 1.82 nM by HotSpot assay relative to control
Sequence of Protein kinase C beta type (Homo sapiens) (P05771 2-671 limits assumed): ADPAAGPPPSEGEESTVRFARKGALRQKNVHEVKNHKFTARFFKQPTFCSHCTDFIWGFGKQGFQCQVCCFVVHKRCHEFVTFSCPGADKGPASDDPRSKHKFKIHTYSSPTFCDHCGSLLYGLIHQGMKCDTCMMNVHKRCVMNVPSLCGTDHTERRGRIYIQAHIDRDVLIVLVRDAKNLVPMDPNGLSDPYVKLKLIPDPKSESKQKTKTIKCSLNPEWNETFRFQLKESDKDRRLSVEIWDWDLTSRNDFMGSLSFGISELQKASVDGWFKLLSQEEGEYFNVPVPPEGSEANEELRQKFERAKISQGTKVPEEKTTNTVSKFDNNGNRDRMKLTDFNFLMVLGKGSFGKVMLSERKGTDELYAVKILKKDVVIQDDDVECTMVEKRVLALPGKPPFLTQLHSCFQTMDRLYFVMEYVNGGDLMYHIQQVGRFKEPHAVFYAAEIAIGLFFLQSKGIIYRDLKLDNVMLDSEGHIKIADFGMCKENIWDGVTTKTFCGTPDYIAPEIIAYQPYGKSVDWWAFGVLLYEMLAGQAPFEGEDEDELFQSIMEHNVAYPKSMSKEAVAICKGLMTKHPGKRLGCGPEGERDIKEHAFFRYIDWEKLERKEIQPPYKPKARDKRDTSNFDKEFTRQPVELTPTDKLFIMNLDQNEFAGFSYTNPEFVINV

Sequence of Serine/threonine-protein kinase MARK1 (Homo sapiens) (Q9P0L2 whole entry, looked up): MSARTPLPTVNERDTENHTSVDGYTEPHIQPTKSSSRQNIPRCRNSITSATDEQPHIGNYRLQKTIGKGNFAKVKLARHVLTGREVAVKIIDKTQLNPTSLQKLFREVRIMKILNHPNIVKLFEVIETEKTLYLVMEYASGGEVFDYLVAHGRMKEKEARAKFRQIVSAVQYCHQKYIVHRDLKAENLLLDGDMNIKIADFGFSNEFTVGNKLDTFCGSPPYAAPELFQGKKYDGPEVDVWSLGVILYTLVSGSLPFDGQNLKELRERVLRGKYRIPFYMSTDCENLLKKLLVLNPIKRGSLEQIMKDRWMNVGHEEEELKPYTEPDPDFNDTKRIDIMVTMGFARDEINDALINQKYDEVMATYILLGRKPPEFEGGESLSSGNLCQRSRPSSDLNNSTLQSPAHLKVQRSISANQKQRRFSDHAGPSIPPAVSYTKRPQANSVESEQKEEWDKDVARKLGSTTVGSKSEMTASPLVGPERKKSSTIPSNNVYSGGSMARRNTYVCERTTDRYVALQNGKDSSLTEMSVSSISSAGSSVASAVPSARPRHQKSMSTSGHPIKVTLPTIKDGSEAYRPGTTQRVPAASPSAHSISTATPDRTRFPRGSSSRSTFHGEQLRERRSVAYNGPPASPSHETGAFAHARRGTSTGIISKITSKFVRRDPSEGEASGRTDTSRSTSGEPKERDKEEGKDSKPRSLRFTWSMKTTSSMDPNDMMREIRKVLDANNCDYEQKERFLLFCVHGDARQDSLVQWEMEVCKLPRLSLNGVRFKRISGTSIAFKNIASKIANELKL

## C[C@]1(O)C[C@@H](c2nc(-c3ccc4ccc(-c5ccccc5)nc4c3)c3c(N)nccn32)C1
[1]
  inhibition: -7.27%
[2]
  inhibition: 0.1%
[3]
  inhibition: 10.8%

## C[C@@]1(C(=O)Nc2ccc(F)nc2)CCCN1c1nc(Nc2cc(C3CC3)n[nH]2)c2cccn2n1
[4]
  inhibition: -0.23%
[5]
  inhibition: 2.64%
[6]
  inhibition: -5.95%
[7]
  inhibition: -8.94%
